For one molecule, IC50 results are on record in paper PMC4074120, “Discovery of Novel GPVI Receptor Antagonists by Structure-Based Repurposing” (PLoS ONE, 2014).

Structures are written as SMILES.

For this experiment, the target named is T1, GPVI (platelet glycoprotein VI) (Homo sapiens, UniProt Q9HCN6).
T1 construct: gene GP6; native receptor on washed human platelets
T1 sequence (Q9HCN6 21-339): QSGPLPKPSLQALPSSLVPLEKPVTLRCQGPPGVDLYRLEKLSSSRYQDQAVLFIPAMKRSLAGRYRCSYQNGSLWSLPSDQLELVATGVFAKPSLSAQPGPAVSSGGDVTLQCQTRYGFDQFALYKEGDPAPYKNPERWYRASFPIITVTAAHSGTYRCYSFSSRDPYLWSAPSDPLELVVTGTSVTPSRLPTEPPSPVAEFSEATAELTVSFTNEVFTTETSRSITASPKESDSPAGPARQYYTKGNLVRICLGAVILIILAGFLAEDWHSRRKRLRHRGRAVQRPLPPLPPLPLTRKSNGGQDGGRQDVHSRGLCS
The experiment can be described thus: Inhibition of CRP-XL/collagen-induced Ca2+ release and aggregation in washed human platelets; rightward shift of CRP-XL curve. In kind it is cell-based. The following applies: read-out: Ca^2+ RELEASE / CRP.

As for `CN(C)CCCSc1ccccc1NC(=O)/C=C/c1ccccc1` [cinanserin], the IC50 was 40 µM.
